According to patent US10568819B2, “Skin enhancing compositions and methods” (Sytheon Limited, priority 2016, dated 2020):
Read-outs that look alike come from different tables or passages of the source.

Assays:
[1] = tested on: COL5A1; test: DNA microarray gene expression, COL5A1; format: cell-based
Text: (§1) In light of the efficacy of the aryl alkanones ire addressing many of the molecular/biomolecular processes damaged by UV exposure, a study was undertaken to assess whether these compounds would also be effective in addressing symptoms associated with non-UV induced skin aging including chronological aging as well as disease conditions that likewise adversely affect skin processes. The studies conducted involves DNA microarray, PCR array, cell culture, enzyme inhibitory activity.

[2] = tested on: LAMA4; test: DNA microarray gene expression, LAMA4; format: cell-based
Text: as §1

[3] = tested on: TIMP3; test: PCR array gene expression, TIMP3; format: cell-based
Text: as §1

[4] = tested on: Cell #; test: Cell number (Sulforhodamine B assay) after UVA irradiation; format: cell-based; settings: 3 hours after irradiation
Protocol: (§2) The study was conducted in accordance with the protocols of Berridge et al, (M V Berridge & A S Tan, Characterization of the cellular reduction of 3-(4,5-dimethylthiazol-2-yl)-2,5-diphenyltetrazolium bromide (MTT): subcellular localization, substrate dependence, and involvement of mitochondrial electron transport in MTT reduction, Arch. Biochem. Biophys. 303:474-482, 1993) and Voigt (W Voigt, Sulforhodamine B assay and chemosensitivity, Methods Mol Med, 110:39-48, 2005). Cellular metabolism is determined using the MTT assay to measure the activity of mitochondrial dehydrogenases, such as succinate dehydrogenase, which are implicated in the respiratory electron transport chain in mitochondria [M V Berridge & Tan Biochem Biophys, 303:474-482, 1993]. Additionally, the samples were subject to the Mitochondrial ToxGlo Assay (Promega Technical Manual, G8000 and G8001), which is a cell-based assay method that has been developed to quantify potential mitochondrial dysfunction as a result of xenobiotic exposure, using a sequential-addition, multiplexed chemistry.
(§3) Table 8 presents the result on the effect of UVA radiation on cell metabolism 3 hours after irradiation. As indicated, Compound 1 improves cell metabolism, even at a very low use concentration. Table 9 presents the effect of 24 hour pre-incubation on UVA-induced mitochondrial damage measured by ATP production in human dermal fibroblasts. […] Finally. Table 10 presents the effect of 24 hour pre-incubation on UVA-induced plasma membrane disruption in human dermal fibroblasts. As indicated, Compound 1 almost completely reversed plasma membrane disruption, again at a very low use concentration.

[5] = tested on: human dermal fibroblasts; test: UVA-induced mitochondrial damage measured by ATP production (Mitochondrial ToxGlo Assay); format: cell-based; settings: 24 h pre-incubation
Protocol: as §2, §3

[6] = tested on: Keratinocyte; test: UVA-induced delayed formation of CPDs (dCPDs) in keratinocytes; format: cell-based; settings: 25 μg/ml
Protocol: (§4) A second study was carried out, similar to the first, except that this time the analysis was in assessing the efficacy, if any, of the presently taught aryl alkanones in reducing UVA-induced delayed formation of CPDs (dCPDs).

[7] = tested on: NOX; settings: UVA, Fibroblasts
[8] = tested on: MMP3; test: DNA microarray gene expression, MMP3; format: cell-based
Text: as §1

[9] = tested on: TIMP4; test: DNA microarray gene expression, TIMP4; format: cell-based
Text: as §1

[10] = tested on: Keratinocytes; test: UVA- and UVB-induced formation of immediate CPDs (iCPDs) in keratinocytes; format: cell-based; settings: 25 μg/ml
Protocol: (§5) Given the significance of CPDs in skin aging and damage, a study was undertaken to determine whether compounds of the present invention have the ability to directly protect the genome of skin cells from the mutagenic effect of UV light as evidenced by CPDs inhibition. The study was conducted in accordance with the method described by Mitchell et. al. [Mitchell, D L, The relative cytotoxicity of (6-4) photoproducts and cyclobutane dimers in mammalian cells. Photochem Photobiol, 48(1):51-57, 1988)] pursuant to which UVA- and UVB-induced formation of immediate CPDs (iCPDs) were determined.

[11] = tested on: TNS2; test: DNA microarray gene expression, TNS2; format: cell-based
Text: as §1

[12] = tested on: FMOD; test: DNA microarray gene expression, FMOD; format: cell-based
Text: as §1

[13] = tested on: Fibroblasts; test: UVA- and UVB-induced formation of immediate CPDs (iCPDs) in fibroblasts; format: cell-based; settings: UVA, 25 μg/ml
Protocol: as §5

[14] = tested on: MSH6; test: DNA microarray gene expression, MSH6; format: cell-based
Text: as §1

[15] = tested on: Collagen type 1; test: Collagen 1 boosting in human dermal fibroblasts; format: cell-based; settings: HDF, incubation time of 6 days
Protocol: In this study, an investigation was performed in relation to the ability, if any, of the aryl alkanones to boost the production of Collagens 1, 3 and 4 proteins. […] In this study, the cells used were human dermal fibroblasts (HDF), passage 12 (Cell Applications, San Diego, Calif.) which underwent an incubation time of 6 days.

[16] = tested on: Fibroblasts; test: UVA-induced delayed formation of CPDs (dCPDs) in fibroblasts; format: cell-based; settings: 25 μg/ml, product incubated for 24 hrs. plus UVA irradiation
Protocol: as §4

[17] = tested on: VCAN; test: DNA microarray gene expression, VCAN; format: cell-based
Text: as §1

[18] = tested on: COL6A3; test: DNA microarray gene expression, COL6A3; format: cell-based
Text: as §1

[19] = tested on: TIMP3; test: DNA microarray gene expression, TIMP3; format: cell-based
Text: as §1

[20] = tested on: Collagen type 3; test: Collagen 3 boosting in human dermal fibroblasts; format: cell-based; settings: HDF, incubation time of 6 days
Protocol: In this study, an investigation was performed in relation to the ability, if any, of the aryl alkanones to boost the production of Collagens 1, 3 and 4 proteins. The study was conducted using human fibroblasts in accordance with the method of J Dobak et at (J Dobak, J Grzybowski, F T Liu, B Landon, M Dobke, 1, 25-Dihydroxyvitamin D3 increases collagen production in dermal fibroblasts, J Dermatol Sci 1994; 8:18-24, 1994). In this study, the cells used were human dermal fibroblasts (HDF), passage 12 (Cell Applications, San Diego, Calif.) which underwent an incubation time of 6 days.

[21] = tested on: ITGA2; test: PCR array gene expression, ITGA2; format: cell-based
Text: as §1

[22] = tested on: FBLN1; test: DNA microarray gene expression, FBLN1; format: cell-based
Text: as §1

[23] = tested on: COL11A2; test: DNA microarray gene expression, COL11A2; format: cell-based
Text: as §1

[24] = tested on: POT1; test: DNA microarray gene expression, POT1; format: cell-based
Text: as §1

`COc1cc(CC(C(C)=O)C(C)=O)ccc1O` [Compound 1, Acetyl Zingerone] was tested. Which “Microarray, COL5A1 gene expression” value [1] did it give?
The value was “+4.1”.

And the “Microarray, LAMA4 gene expression” value [2]?
The value was “+1.7”.

And the “PCR array, TIMP3 gene expression” value [3]?
Its value is “+2.4”.

And the “Cell # (% Control)” value ([4]; 0.5 μg/ml)?
Its value is 99 % Control.

What about the “Cell # (% Control)” value ([4]; 2 μg/ml) of the same compound?
The value was 101 % Control.

And the “Cell # (% Control)” value ([4]; 5 μg/ml)?
The value was 95 % Control.

And the “ATP-related chemoluminescence (% Control)” value ([5]; 6.25 ug/ml)?
The value was 94 % Control.

What about the “Comments: % damage” value ([5]; 6.25 ug/ml) of the same compound?
The value was “Only 6%”.

And the “ATP-related chemoluminescence (% Control)” value ([5]; 12.5 ug/ml)?
The value was 87 % Control.

What about the “Comments: % damage” value ([5]; 12.5 ug/ml) of the same compound?
The value was “Only 13%”.

What about the “UVA/% Reduction in dCPDs vs. control, 0 hr. (Reduction in iCPDs)” value ([6]; 0 hr.) of the same compound?
Its value is “^+0 hr.: ↓14%”.

What about the “UVA/% Reduction in dCPDs vs. control, 1 hr.” value ([6]; 1 hr.) of the same compound?
The value was 1 hr.: ↓43%.

And the “UVA/% Reduction in dCPDs vs. control, 2 hr.” value ([6]; 2 hr.)?
The value was 2 hr.: ~0%.

What about the “reduction of NOX activity” value ([7]; 25 μg/ml) of the same compound?
Its value is −27%.

And the “reduction of NOX activity” value ([7]; 50 μg/ml)?
The value was −33%.

And the “Microarray, MMP3 gene expression” value [8]?
Its value is −2.4.

What about the “Microarray, TIMP4 gene expression” value [9] of the same compound?
Its value is “+1.6”.

What about the “UVA/% Reduction in iCPDs vs. Control” value ([10]; UVA) of the same compound?
The value was 73%.

What about the “UVB/% Reduction iCPDs vs. Control” value ([10]; UVB) of the same compound?
Its value is 44%.

And the “Microarray, TNS2 gene expression” value [11]?
The value was “+1.7”.

And the “Microarray, FMOD gene expression” value [12]?
The value was “+1.6”.

What about the “UVA/% Reduction in iCPDs vs. Control” value [13] of the same compound?
Its value is 45%.

What about the “Microarray, MSH6 gene expression” value [14] of the same compound?
Its value is “+2.1”.

And the “% Collagen 1 Bosting” value ([15]; 50 μg/ml)?
The value was 118%.

And the “% Collagen 1 Bosting” value ([15]; 100 μg/ml)?
The value was 173%.

What about the “UVA/% Reduction in dCPDs vs. control, 0 hr. (Reduction in iCPDs)” value ([16]; 0 hr.) of the same compound?
The value was “^+0 hr.: ↓45%”.

And the “UVA/% Reduction in dCPDs vs. control, 1 hr.” value ([16]; 1 hr.)?
Its value is 1 hr.: ↓20%.

What about the “UVA/% Reduction in dCPDs vs. control, 2 hr.” value ([16]; 2 hr.) of the same compound?
The value was 2 hr.: ↓18%.

What about the “Microarray, VCAN gene expression” value [17] of the same compound?
Its value is “+1.7”.

What about the “Microarray, COL6A3 gene expression” value [18] of the same compound?
Its value is “+1.8”.

What about the “Microarray, TIMP3 gene expression” value [19] of the same compound?
The value was “+5.1”.

And the “% Collagen 3 boosting” value ([20]; 50 μg/ml)?
Its value is 111%.

And the “% Collagen 3 boosting” value ([20]; 100 μg/ml)?
Its value is 146%.

And the “PCR array, ITGA2 gene expression” value [21]?
The value was “+1.6”.

And the “Microarray, FBLN1 gene expression” value [22]?
Its value is “+1.9”.

And the “Microarray, COL11A2 gene expression” value [23]?
Its value is “+5.2”.

What about the “Microarray, POT1 gene expression” value [24] of the same compound?
Its value is “+2.9”.
